Read-outs that look alike come from different tables or passages of the source.
What was measured:
PD-1 = PD-1 (CD279) expression on PHA/PMA-activated Jurkat T cells, flow cytometry; assay type: cell-based; conditions: Homo sapiens, percentage of inhibition of PD-1 positive cells at 10 μM, 48 hours
Method: To examine the effect of MNK inhibitors on PD-1 expression, Jurkat cells (Clone E6.1, ATCC, transformed T cells) were used, which express PD-1 when activated through T cell receptor (TCR) signaling. Briefly, Jurkat cells were grown in 1×RPMI with 1×Pen/Strep, and 10% FBS, then about 3×10^6 Jurkat cells were activated in presence of 1 μg/mL PHA (Sigma) and 50 ng/mL PMA (Sigma). Test Cells were treated simultaneously with various concentrations of an MNK inhibitor (0, 0.01, 0.1, 1, 3 and 10 μM). After 48 hours, culture supernatants were harvested and examined via sandwich ELISA for the presence of IL-2 using human IL-2 ELISA DuoSet (R&D Systems, Minneapolis, Minn.). The level of PD-1 on Jurkat cells was examined by incubating with human FcR block, then contacted with allophycocyanin (APC) conjugated anti-PD-1 antibody (5 μl per 100 μl volume of test, Biolegend, San Diego, CA) for 25 minutes at 4° C., without washing the cells, fixable dead cell stain (1:10,000; BD Biosciences, San Jose, CA) was added and incubated further for 10 minutes at 4° C. Cells were washed two times with flow buffer, and finally cells were fixed with fixation buffer for 15 minutes at 4° C. After fixation, cells were washed twice with flow buffer and re-suspended in flow buffer and assessed for fluorescence using BD Accuri C6 flow cytometer. Data were analyzed using the C6 cytometer software (BD Biosciences, San Jose, CA) or Attune Nxt Cytometer (Invitrogen, Carlsbad, CA).
Activation of Jurkat T cells with PHA and PMA induced the expression of PD-1 on the cell surface of about 25-30% of the stimulated Jurkat cells as compared to uninduced cells (Unstim) and induced a 1,000-fold increase in IL-2 cytokine production, respectively. […] Lastly, MNK inhibition by various different MNK inhibitors had no effect on cell viability. […] To this end, percentage of inhibition of PD-1 positive cells (10 μM) of more than 50% are labelled as “+++”, from 10% to 50% are labelled as “++”, and less than 10% are labelled as “+” (NA means “not available”).

Phosphorylated eIF4E = assay: peIF4E signaling cellular assay (CisBio peIF4E HTRF); assay type: cell-based; conditions: 2 hrs incubation at 37° C., 12-point curve 20 μM to 0.1 nM; read-out: pEI4IE signaling activity
Method: Phosphorylated eIF4E is assayed using the CisBio peIF4E HTRF® assay kit (CisBio, catalogue No. 64EF4PEG). Cells are plated in 96-well tissue-culture treated plate in appropriate growth medium (90 μL). Compounds (10×) are diluted using 3-fold serial dilutions in cell culture medium and added to cells. Plates are incubated for 2 hrs at 37° C. The cell supernatant is carefully removed either by aspirating supernatant or by flicking the plate. Immediately 50 μL of supplemented lysis buffer (1×) is added and incubated for at least 30 minutes at room temperature under shaking. After homogenization by pipeting up and down, 16 μL of cell lysate is transferred from the 96-well cell-culture plate to a 384-well small volume white plate. 4 μL of premixed antibody solutions (vol/vol) is prepared in the detection buffer and added. The plate is covered with a plate sealer and incubated overnight at room temperature. The fluorescence emissions at two different wavelengths are read (665 nm and 620 nm) on a Wallac Victor2. Emission ratios are converted into percent inhibitions and imported into GraphPad Prism software. […] IC50 values are determined using a nonlinear regression model available in GraphPad Prism 5.
To this end, IC50 values of less than 0.001 μM are labelled as “+++”, from 0.001 to 0.01 μM are labelled as “++”, and greater than 0.01 μM are labelled as “+” (NA means “not available”).

[1] = High throughput thermodynamic solubility procedure; assay type: physicochemical; conditions: for solubility in fasted state simulated gastric fluid (FaSSGF), in words: pH value of 1.6
Method: In a 96-well plate, 10 mM DMSO stocks (50-100 uL) of each compound were dried under heated nitrogen flow using a SPE-96 plate dryer (upper flow rate=50 L/min, temperature=60° C., lower flow rate=20 L/min, temperature=80° C.). […] Compounds prepared as the free base were assessed in conditions with and without one equivalent of TFA added. The theoretical maximum concentrations of the aqueous solutions were 10 mM. Each well was capped and incubated for a period of 18 hours at room temperature or 37° C. Mixing of the solutions during the incubation period was performed by either shaking the plate at 750 rpm or adding StirStix (stainless steel capillaries) and agitating the mixture using a rotary magnetic tumble stirrer. After the incubation period, aliquots from each well were filtered. Solubility of all samples were quantified following comparison to standards of known concentration by HPLC-UV.

[2] = Fasted-State Simulated Intestinal Fluid (FaSSIF), pH 6.5, fassif, thermodynamic from solid, Fasted-State Simulated Intestinal Fluid, 18 hours incubation, theoretical maximum 10 mM, read-out: Aqueous Solubility FaSSIF (pH 6.5)
[3] = thermodynamic from solid, deionized water, 18 hours incubation, theoretical maximum 10 mM, read-out: Aqueous Solubility DI H2O

| IC50 (Phosphorylated eIF4E) [nM] | solubility in fasted state simulated gastric fluid (FaSSGF), in words [1] | solubility at 18 h [1, 2] | solubility at 18 h [1, 3] | SMILES | inhibition at 10 µM (PD-1) [%] | solubility in DI water at 18 h ([1]; thermodynamic from solid, deionized water, 18 hours incubation, theoretical maximum 10 mM) [µM] |
| --- | --- | --- | --- | --- | --- | --- |
| 1 to 10 | excellent solubility | 240 µM | 4300 µM | Cc1cc(Nc2ncnc(N)c2C)c(=O)n2c1C(=O)NC21CCCN(C)C1 (racemic) [rac-1F, 6-((6-amino-5-methylpyrimidin-4-yl)amino)-1′,8-dimethyl-2H-spiro[imidazo[1,5-a]pyridine-3,3′-piperidine]-1,5-dione] | 10 to 50 | – |
| < 1 | – | – | – | Cc1cc(Nc2ncnc(N)c2Cl)c(=O)n2c1C(=O)NC21CCCN(CC(F)F)C1 (stereo not drawn) [Compound 3I] | – | – |
| 1 to 10 | – | 593 µg/mL | – | Cc1cc(Nc2ncnc(N)c2Cl)c(=O)n2c1C(=O)NC21CCCN(C(C)(C)C)C1 (stereo not drawn) [Compound 3W] | – | – |
| 1 to 10 | excellent solubility | 79 µg/mL | – | Cc1cc(Nc2ncnc(N)c2C#N)c(=O)n2c1C(=O)NC21CCCN(C)C1 (racemic) [rac-2F] | 10 to 50 | – |
| 1 to 10 | – | 256 µM | 2600 µM | Cc1cc(Nc2ncnc(N)c2Cl)c(=O)n2c1C(=O)NC21CCCNC1 (stereo not drawn) [Compound 3C] | > 50 | – |
| < 1 | excellent solubility | – | – | Cc1cc(Nc2ncnc(N)c2Cl)c(=O)n2c1C(=O)N[C@]21CCCN(C)C1 [Compound 3Y] | – | – |
| > 10 | – | – | – | Cc1cc(Nc2ncnc(N)c2C)c(=O)n2c1C(=O)NC21CCCNC1 (stereo not drawn) [Compound 3B] | – | – |
| < 1 | excellent solubility | – | – | Cc1cc(Nc2ncnc(N)c2Cl)c(=O)n2c1C(=O)N[C@@]21CCCN(C)C1 [Compound 3X] | – | – |
| 1 to 10 | excellent solubility | 70 µM | 3200 µM | Cc1cc(Nc2ncnc(N)c2Cl)c(=O)n2c1C(=O)N[C@@]21CCCNC1 [Compound 3L] | > 50 | – |
| > 10 | – | – | – | Cc1cc(Nc2ncnc(N)c2C)c(=O)n2c1C(=O)NC21CCCN(CC2CC2)C1 (stereo not drawn) [Compound 3H] | – | – |
| < 1 | – | – | – | Cc1cc(Nc2ncnc(N)c2C)c(=O)n2c1C(=O)NC21CCCN2CCCC21 (stereo not drawn) [Compound 3O] | – | – |
| < 1 | – | – | – | Cc1cc(Nc2ncnc(N)c2Cl)c(=O)n2c1C(=O)NC21CCN(C)C(C)(C)C1 (stereo not drawn) [Compound 3FF] | 10 to 50 | – |
| 1 to 10 | – | 30 µM | 4400 µM | Cc1cc(Nc2ncnc(N)c2C)c(=O)n2c1C(=O)NC21CCN(CCC(F)(F)F)CC1 [Compound 3AA] | < 10 | – |
| < 1 | – | 130 µM | 2100 µM | Cc1cc(Nc2ncnc(N)c2Cl)c(=O)n2c1C(=O)NC21CCN(C)CC1(C)C (stereo not drawn) [Compound 3DD] | > 50 | – |
| 1 to 10 | – | 18 µM | – | Cc1cc(Nc2ncnc(N)c2C)c(=O)n2c1C(=O)NC21CCN(CC2(F)CC2)CC1 [Compound 3HH] | < 10 | – |
| > 10 | – | 107 µg/mL | – | Cc1cc(Nc2ncnc(N)c2C)c(=O)n2c1C(=O)NC21CCCN(C(C)(C)C)C1 (stereo not drawn) [Compound 3V] | – | – |
| < 1 | – | – | – | Cc1cc(Nc2ncnc(N)c2Cl)c(=O)n2c1C(=O)NC21CCCN2CCCC21 (stereo not drawn) [Compound 3P] | – | – |

| IC50 (Phosphorylated eIF4E) [nM] | solubility in fasted state simulated gastric fluid (FaSSGF), in words [1] | solubility at 18 h [1, 2] | solubility at 18 h [1, 3] | SMILES | inhibition at 10 µM (PD-1) [%] | solubility in DI water at 18 h ([1]; thermodynamic from solid, deionized water, 18 hours incubation, theoretical maximum 10 mM) [µM] |
| --- | --- | --- | --- | --- | --- | --- |
| 1 to 10 | – | – | – | Cc1cc(Nc2ncnc(N)c2Cl)c(=O)n2c1C(=O)NC21CCCN(CC2CC2)C1 (stereo not drawn) [Compound 3J] | – | – |
| 1 to 10 | – | 40 µM | 770 µM | Cc1cc(Nc2ncnc(N)c2Cl)c(=O)n2c1C(=O)NC21CCN(CCF)CC1 [Compound 3CC] | 10 to 50 | – |
| > 10 | excellent solubility | 158 µg/mL | 1530 µg/mL | Cc1cc(Nc2ncnc(N)c2Cl)c(=O)n2c1C(=O)N[C@]21CCCNC1 [Compound 3K] | > 50 | – |
| 1 to 10 | – | – | – | Cc1cc(Nc2ncnc(N)c2C)c(=O)n2c1C(=O)NC21CCN(CC(C)(C)F)CC1 [Compound 3GG] | – | – |
| > 10 | – | – | – | Cc1cc(Nc2ncnc(N)c2C#N)c(=O)n2c1C(=O)NC21CCCNC1 (stereo not drawn) [Compound 3U] | – | – |
| 1 to 10 | – | – | – | Cc1cc(Nc2ncnc(N)c2Cl)c(=O)n2c1C(=O)NC21CCN(C2CC2)CC1 [Compound 3Z] | – | – |
| < 1 | – | – | – | Cc1cc(Nc2ncnc(N)c2Cl)c(=O)n2c1C(=O)NC21CCN(CCC(F)(F)F)CC1 [Compound 3BB] | < 10 | – |
| 1 to 10 | – | – | – | CCN1CCCC2(C1)NC(=O)c1c(C)cc(Nc3ncnc(N)c3C)c(=O)n12 (stereo not drawn) [Compound 3N] | – | – |
| > 10 | excellent solubility | 151 µg/mL | 1770 µg/mL | Cc1cc(Nc2ncnc(N)c2C#N)c(=O)n2c1C(=O)N[C@@]21CCCN(C)C1 (single isomer, unassigned) [Compound 2Fb] | 10 to 50 | – |
| < 1 | – | 68 µg/mL | – | Cc1cc(Nc2ncnc(N)c2Cl)c(=O)n2c1C(=O)NC21CCCN(C(C)C)C1 (stereo not drawn) [Compound 3R] | – | – |
| > 10 | – | – | – | Cc1cc(Nc2ncnc(N)c2C)c(=O)n2c1C(=O)NC21CCCN(CCC(F)(F)F)C1 (stereo not drawn) [Compound 3E] | – | – |
| 1 to 10 | – | – | – | Cc1cc(Nc2ncnc(N)c2C)c(=O)n2c1C(=O)NC21CCCN(C(C)C)C1 (stereo not drawn) [Compound 3Q] | – | – |
| 1 to 10 | – | – | 240 µM | Cc1cc(Nc2ncnc(N)c2Cl)c(=O)n2c1C(=O)NC21CCCN(CCC(F)(F)F)C1 (stereo not drawn) [Compound 3F] | – | – |
| 1 to 10 | – | – | – | Cc1cc(Nc2ncnc(N)c2Cl)c(=O)n2c1C(=O)NC21CC(C)N(C)C(C)C1 (stereo not drawn) [Compound 3EE] | > 50 | – |
| 1 to 10 | – | – | – | Cc1cc(Nc2ncnc(N)c2C)c(=O)n2c1C(=O)NC21CCCN(CC(F)F)C1 (stereo not drawn) [Compound 3G] | – | – |
| 1 to 10 | excellent solubility | 110 µM | 3300 µM | Cc1cc(Nc2ncnc(N)c2Cl)c(=O)n2c1C(=O)NC21CCCN(C)C1 (stereo not drawn) [Compound 3D] | – | – |

| SMILES | IC50 (Phosphorylated eIF4E) [nM] | solubility in fasted state simulated gastric fluid (FaSSGF), in words [1] | solubility at 18 h [1, 2] | solubility at 18 h [1, 3] | inhibition at 10 µM (PD-1) [%] | solubility in DI water at 18 h ([1]; thermodynamic from solid, deionized water, 18 hours incubation, theoretical maximum 10 mM) [µM] |
| --- | --- | --- | --- | --- | --- | --- |
| Cc1cc(Nc2ncnc(N)c2Cl)c(=O)n2c1C(=O)NC21CCCCC1.Cl [Compound 4A, 6′-((6-amino-5-chloropyrimidin-4-yl)amino)-8′-methyl-2′H-spiro[cyclohexane-1,3′-imidazo[1,5-a]pyridine]-1′,5′-dione Hydrochloride, reference compound] | – | – | 45 µM | – | > 50 | 300 |
